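The compound was tested at five concentrations on cells cultured in 96-well plates, with a 48-hour exposure period. Abbreviation: GI50, concentration required for 50% inhibition of growth.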 Activity calls are given as the source filed them. Cut-off read from the data, not from the text of the source: active = GI50 up to about 1.1 µM and inactive = higher.
Columns and labels:
Test in all cases: DTP human tumour cell line panel, 48 h
A498 = test system: A498
A549 = test system: A549
ACHN = test system: ACHN
CAKI-1 = test system: CAKI-1
CCRF-CEM = test system: CCRF-CEM
COLO 205 = test system: COLO 205
DLD-1 = test system: DLD-1
DMS-114 = test system: DMS-114
EKVX = test system: EKVX
HCC 2998 = test system: HCC 2998
HCT-116 = test system: HCT-116
HL-60 = test system: HL-60
HOP-18 = test system: HOP-18
HOP-62 = test system: HOP-62
HT-29 = test system: HT-29
IGROV-1 = test system: IGROV-1
K562 = test system: K562
KM-20L2 = test system: KM-20L2
KM12 = test system: KM12
LOX IMVI = test system: LOX IMVI
LXFL 529 = test system: LXFL 529
M14 = test system: M14
M19-MEL = test system: M19-MEL
MOLT-4 = test system: MOLT-4
Malme-3M = test system: Malme-3M
NCI-H226 = test system: NCI-H226
NCI-H23 = test system: NCI-H23
NCI-H460 = test system: NCI-H460
NCI-H522 = test system: NCI-H522
OVCAR-3 = test system: OVCAR-3
OVCAR-4 = test system: OVCAR-4
OVCAR-5 = test system: OVCAR-5
OVCAR-8 = test system: OVCAR-8
RPMI-8226 = test system: RPMI-8226
SF-268 = test system: SF-268
SF-295 = test system: SF-295
SF-539 = test system: SF-539
SK-MEL-28 = test system: SK-MEL-28
SK-MEL-2 = test system: SK-MEL-2
SK-MEL-5 = test system: SK-MEL-5
SK-OV-3 = test system: SK-OV-3
SN12C = test system: SN12C
SNB-19 = test system: SNB-19
SNB-75 = test system: SNB-75
SNB-78 = test system: SNB-78
SR = test system: SR
SW-620 = test system: SW-620
U-251 = test system: U-251
UACC-257 = test system: UACC-257
UACC-62 = test system: UACC-62
UO-31 = test system: UO-31
DMS-273 = test system: DMS-273
HCT-15 = test system: HCT-15
RXF 393 = test system: RXF 393
TK-10 = test system: TK-10
786-0 = test system: 786-0
HOP-92 = test system: HOP-92
MCF7 = test system: MCF7
NCI/ADR-RES = test system: NCI/ADR-RES
XF498 = test system: XF498
BT-549 = test system: BT-549
DU-145 = test system: DU-145
Hs-578T = test system: Hs-578T
MDA-MB-231 = test system: MDA-MB-231
MDA-MB-435 = test system: MDA-MB-435
PC-3 = test system: PC-3
T47D = test system: T47D

Measured: GI50

CCOC(=O)C1=C(C)N(C2OC(COC(=O)c3ccccc3)C(OC(=O)c3ccccc3)C2OC(=O)c2ccccc2)C(=S)NC1c1ccccc1 (stereo unspecified)
inactive: A498 28.2 µM | A549 37.4 µM | ACHN 25.1 µM | CAKI-1 24.4 µM | CCRF-CEM 23.1 µM | COLO 205 33.6 µM | DLD-1 38.9 µM | DMS-114 19 µM | EKVX 6.79 µM | HCC 2998 49.2 µM | HCT-116 29.9 µM | HL-60 14.4 µM | HOP-18 16.7 µM | HOP-62 > 100 µM | HT-29 50.6 µM | IGROV-1 46.8 µM | K562 17.1 µM | KM-20L2 43.6 µM | KM12 50.2 µM | LOX IMVI 58.9 µM | LXFL 529 27.2 µM | M14 25.7 µM | M19-MEL 33.1 µM | MOLT-4 16.1 µM | Malme-3M 25.5 µM | NCI-H226 31.1 µM | NCI-H23 29.1 µM | NCI-H460 31.4 µM | NCI-H522 22.1 µM | OVCAR-3 21.9 µM | OVCAR-4 29.4 µM | OVCAR-5 61.7 µM | OVCAR-8 44.4 µM | RPMI-8226 16.1 µM | SF-268 44.6 µM | SF-295 61.7 µM | SF-539 54.8 µM | SK-MEL-28 49.2 µM | SK-MEL-2 64.3 µM | SK-MEL-5 18.4 µM | SK-OV-3 60.1 µM | SN12C 40.4 µM | SNB-19 55.1 µM | SNB-75 30.4 µM | SNB-78 31.8 µM | SR 20 µM | SW-620 33.3 µM | U-251 34.9 µM | UACC-257 33.5 µM | UACC-62 29.3 µM | UO-31 24.2 µM

Cc1ccc(-c2cc(-c3ccco3)c(C#N)c(=O)n2C2OC(CO)C(O)C(O)C2O)cc1 (stereo unspecified)
inactive: A498 21.6 µM | ACHN 42.9 µM | CCRF-CEM 66.2 µM | COLO 205 > 100 µM | DLD-1 67.6 µM | DMS-114 > 100 µM | DMS-273 50.7 µM | EKVX > 100 µM | HCC 2998 > 100 µM | HCT-116 94.8 µM | HL-60 > 100 µM | HOP-18 > 100 µM | HOP-62 49.5 µM | HT-29 > 100 µM | IGROV-1 49.1 µM | K562 > 100 µM | KM-20L2 > 100 µM | KM12 84.5 µM | LOX IMVI 68.1 µM | LXFL 529 61.9 µM | M14 67.5 µM | MOLT-4 > 100 µM | Malme-3M 41 µM | NCI-H226 58.6 µM | NCI-H23 37.1 µM | NCI-H460 37.1 µM | NCI-H522 44.5 µM | OVCAR-3 45.6 µM | OVCAR-4 35.7 µM | OVCAR-5 > 100 µM | OVCAR-8 32.2 µM | RPMI-8226 73.3 µM | RXF 393 48.3 µM | SF-268 53 µM | SF-295 33.6 µM | SK-MEL-28 37 µM | SK-MEL-5 22 µM | SK-OV-3 28.7 µM | SN12C 46.3 µM | SNB-19 68.2 µM | SNB-78 65.5 µM | SR > 100 µM | SW-620 93.8 µM | TK-10 45.3 µM | U-251 33.3 µM | UACC-257 58.5 µM | UACC-62 42.3 µM | UO-31 59.6 µM
83.6 µM: HCT-15

NC(=O)c1csc(C2CCC(CO)O2)n1 (stereo unspecified)
> 100 µM: HCT-15
inactive: 786-0 > 100 µM | A498 > 100 µM | A549 > 100 µM | ACHN > 100 µM | CAKI-1 > 100 µM | CCRF-CEM > 100 µM | COLO 205 > 100 µM | DMS-114 > 100 µM | DMS-273 > 100 µM | EKVX > 100 µM | HCC 2998 > 100 µM | HCT-116 > 100 µM | HL-60 > 100 µM | HOP-18 > 100 µM | HOP-62 > 100 µM | HOP-92 > 100 µM | HT-29 > 100 µM | IGROV-1 > 100 µM | K562 > 100 µM | KM-20L2 > 100 µM | KM12 > 100 µM | LOX IMVI > 100 µM | LXFL 529 > 100 µM | M14 > 100 µM | M19-MEL > 100 µM | MOLT-4 > 100 µM | Malme-3M > 100 µM | NCI-H226 > 100 µM | NCI-H23 > 100 µM | NCI-H460 > 100 µM | NCI-H522 > 100 µM | OVCAR-3 > 100 µM | OVCAR-4 > 100 µM | OVCAR-5 > 100 µM | OVCAR-8 > 100 µM | RPMI-8226 > 100 µM | SF-268 > 100 µM | SF-295 > 100 µM | SF-539 > 100 µM | SK-MEL-28 > 100 µM | SK-MEL-2 > 100 µM | SK-OV-3 > 100 µM | SN12C > 100 µM | SNB-19 > 100 µM | SNB-78 > 100 µM | SW-620 > 100 µM | TK-10 > 100 µM | U-251 > 100 µM | UACC-257 > 100 µM | UACC-62 > 100 µM | UO-31 > 100 µM

COC(=O)c1ccc(/N=N/N(C)COc2ccc([N+](=O)[O-])cc2)cc1
inactive: A498 > 87.5 µM | A549 > 100 µM | CCRF-CEM 58.2 µM | COLO 205 > 57.3 µM | DLD-1 > 100 µM | DMS-114 > 100 µM | DMS-273 > 100 µM | EKVX > 100 µM | HCC 2998 > 74.5 µM | HCT-116 > 100 µM | HL-60 21.8 µM | HOP-62 > 100 µM | HOP-92 65.3 µM | HT-29 > 94 µM | IGROV-1 > 100 µM | K562 50.7 µM | KM-20L2 54.3 µM | KM12 81.8 µM | LOX IMVI > 86.9 µM | M19-MEL > 100 µM | MCF7 > 81.5 µM | MOLT-4 > 100 µM | Malme-3M > 100 µM | NCI-H226 > 100 µM | NCI-H23 > 100 µM | NCI-H460 15.5 µM | NCI-H522 > 100 µM | NCI/ADR-RES > 100 µM | OVCAR-3 > 100 µM | OVCAR-4 > 100 µM | OVCAR-5 > 95.7 µM | OVCAR-8 > 100 µM | RPMI-8226 38.7 µM | RXF 393 > 85.3 µM | SF-268 > 78.2 µM | SF-295 > 77.4 µM | SF-539 88.7 µM | SK-MEL-28 > 100 µM | SK-MEL-2 > 80.9 µM | SK-MEL-5 > 96.8 µM | SK-OV-3 > 100 µM | SN12C > 100 µM | SNB-19 > 100 µM | SNB-75 54.6 µM | SNB-78 > 100 µM | SW-620 64.7 µM | U-251 > 100 µM | UACC-257 > 100 µM | UACC-62 33.3 µM | UO-31 > 100 µM | XF498 > 100 µM
> 90.8 µM: HCT-15

CC(=O)O[C@@]12CO[C@@H]1CC(O)[C@@]1(C)C(=O)[C@H](O)C3=C(C)C(O)C[C@@](O)(C(OC(=O)c4ccccc4)C12)C3(C)C (stereo partly specified)
inactive: 786-0 2.9 µM | A498 5.82 µM | A549 3.81 µM | ACHN 51.2 µM | BT-549 1.26 µM | CAKI-1 24.8 µM | DU-145 3.35 µM | EKVX 5.62 µM | HCC 2998 1.72 µM | HOP-62 6.05 µM | HOP-92 22.6 µM | IGROV-1 1.88 µM | M14 2.59 µM | M19-MEL 12.8 µM | MDA-MB-231 4.19 µM | Malme-3M 2.54 µM | NCI-H226 > 100 µM | NCI/ADR-RES > 100 µM | OVCAR-4 > 90.8 µM | OVCAR-5 3.94 µM | OVCAR-8 3.13 µM | RXF 393 25 µM | SF-268 3.97 µM | SF-295 5.32 µM | SK-MEL-5 6.58 µM | SN12C 2.18 µM | SNB-19 3.3 µM | SNB-78 15.5 µM | T47D > 100 µM | TK-10 8.51 µM | UO-31 46.1 µM | XF498 2.07 µM
active: CCRF-CEM 0.454 µM | COLO 205 0.434 µM | DMS-273 0.472 µM | HCT-116 0.371 µM | HL-60 0.41 µM | HT-29 0.385 µM | Hs-578T 0.252 µM | K562 0.619 µM | KM-20L2 0.679 µM | KM12 0.558 µM | LOX IMVI 0.839 µM | MCF7 0.463 µM | MDA-MB-435 0.18 µM | MOLT-4 0.759 µM | NCI-H23 0.869 µM | NCI-H460 1.02 µM | NCI-H522 0.637 µM | OVCAR-3 0.454 µM | PC-3 0.881 µM | RPMI-8226 0.519 µM | SF-539 0.415 µM | SK-MEL-2 0.367 µM | SK-OV-3 0.767 µM | SNB-75 0.507 µM | SR 1.06 µM | SW-620 0.448 µM | U-251 0.828 µM | UACC-257 0.684 µM | UACC-62 0.508 µM
24.7 µM: HCT-15

Reference: ChEMBL document CHEMBL1201862, “PubChem BioAssay data set” (2004)
